Source: patent US10435388B2, “Selective inhibitors of clinically important mutants of the EGFR tyrosine kinase” (CS PHARMATECH LIMITED, priority 2016, dated 2019)
Counter-ions that a name gives are not always drawn.

Experiments:
INSR = biological target: T1, INSR (Homo sapiens, UniProt P06213); assay: INSR inhibition assay (Caliper EZ Reader); type: biochemical; settings: enzyme assay
T1 construct: purchased CARNA BIOSCIENCE 08-142
Protocol: (§1) Test compound was dissolved in DMSO at 30 mM. […] 20 nL of these compounds DMSO dilutes were dispensed into a new 384-well assay plate by Echo 550. […] 15 uL of kinase assay buffer containing INSR protein and substrate was transferred to assay plate and incubate at RT for 30 minutes. Kinase assay buffer supplemented with substrate peptides was employed as low control to monitor the background. 40 LM ATP was prepared in kinase assay buffer containing and 5 μL of ATP solution was added to each well to start the reaction. The assay plate was incubated at 25° C. for 180 minutes and the reaction was stopped by adding 40 μL of 0.5 M EDTA.
The result is analyzed in the same manner of […].

H1975 cells (DM) = assay: H1975 inhibition assay (cell proliferation), Method B; type: cell-based; settings: cellular proliferation, several runs
Protocol: (§2) Cell Proliferation Assays—Method B
H1975 Inhibition Assay (Cell Proliferation).
(§3) Test compounds were dissolved in DMSO at 30 mM.
(§4) The final concentration was 1,000 cells/well. Add medium only as low control. […] 5% CO2 incubator for 72 hours.
(§5) After 72 hours incubation, remove the plates from incubator and equilibrate at room temperature for 15 minutes. Incubate the CellTiter Glo reagents (Promega, G9243) at 37° C. before the experiment. The buffer was equilibrated to room temperature and used to dissolve the substrate. To determine the cell viability, add 40 μL of CellTiter-Glo reagent into each well to be detected (at 1:1 to culture medium). Then the place the plates at room temperature for 30 min followed by read on EnSpire (PerkinElmer).
(§6) For estimation of IC50, the luminescence readout are transformed to % Inhibition by applying the following equation: The IC50 was then
(§7) [formula] calculated by fitting in XLFit to a four parameters logistic curve.

IGF-1R = biological target: T2, IGF-1R (Homo sapiens, UniProt P08069); assay: IGF-1R inhibition assay (Caliper EZ Reader); type: biochemical; settings: enzyme assay
T2 construct: purchased CARNA BIOSCIENCE 08-141
Protocol: as §1, with “IGF-1R” for “INSR”, “μM” for “LM”
Phosphorylated fluorescent-tagged peptides were differentiated from non-phosphorylated peptides by separating using Caliper EZ Reader II and the detection was directly converted to conversion ratio.

PC9 cells (SM) = assay: PC-9 growth inhibition assay (cell proliferation), Method B; type: cell-based, human; settings: cellular proliferation, several runs
Protocol: as §2, §3, §4, §5, §6, §7
PC-9 Growth Inhibition Assay (Cell Proliferation).
The inhibition assay of PC-9 cells was conducted in the same manner as described above for H1975 cells.

A431 cells (WT) = assay: A431 inhibition assay (cell proliferation), Method B; type: cell-based, human; settings: Homo sapiens, A-431, 72 h, cellular proliferation, several runs
Protocol: as §2
A431 Inhibition Assay, (Cell Proliferation).
The rest procedure was conducted in the same manner as described above for H1975 cells.

[1] = system: PC9 cells (EGFR d746-750 single mutant); assay: PC-9 growth inhibition assay (cell proliferation), Method A; type: cell-based, human; settings: Homo sapiens, PC-9; cellular proliferation, *tested by method A (Table 2); read-out: SM (PC9) IC50
Protocol: (§8) Cell Proliferation Assays—Method A
(§9) The final concentration was 4,000 cells/well. Add medium only as low control.
(§10) Day-2: Test compounds were dissolved in DMSO at 0.2 mM (200×).
(§11) Day-5: After 72 hours incubation, remove the plates from incubator and equilibrate at room temperature for 15 minutes. Incubate the CellTiter Glo reagents (Promega, G9243) at 37° C. before the experiment. The buffer was equilibrated to room temperature and used to dissolve the substrate. To determine the cell viability, add 30 μL of CellTiter-Glo reagent into each well to be detected. Then shake the plates at room temperature for 10 min and followed by plate read on Envision (PerkinElmer).
as §6, §7
PC-9 Growth Inhibition Assay (Cell Proliferation)
The inhibition assay for PC-9 cells was processed in the same manner as described for the H1975 cells.

[2] = system: NCI-H1975 cells (EGFR L858R/T790 double mutant); assay: H1975 inhibition assay (cell proliferation), Method A; type: cell-based; settings: Homo sapiens, NCI-H1975; cellular proliferation, *tested by method A (Table 2); read-out: DM (H1975) IC50
Protocol: as §8
H1975 Inhibition Assay (Cell Proliferation)
as §9, §10, §11, §6, §7

T2 sequence (P08069 959-1367 limits assumed): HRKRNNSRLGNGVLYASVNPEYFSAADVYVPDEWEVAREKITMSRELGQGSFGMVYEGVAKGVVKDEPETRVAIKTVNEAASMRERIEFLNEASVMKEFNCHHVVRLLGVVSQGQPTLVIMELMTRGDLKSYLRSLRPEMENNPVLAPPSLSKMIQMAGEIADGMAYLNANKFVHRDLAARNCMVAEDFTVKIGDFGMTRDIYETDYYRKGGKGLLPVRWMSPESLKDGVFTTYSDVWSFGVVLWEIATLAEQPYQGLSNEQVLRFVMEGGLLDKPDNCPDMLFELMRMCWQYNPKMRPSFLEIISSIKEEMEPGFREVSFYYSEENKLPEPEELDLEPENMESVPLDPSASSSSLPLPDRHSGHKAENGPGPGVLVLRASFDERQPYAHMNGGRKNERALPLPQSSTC
T1 sequence (P06213 989-1382 limits assumed): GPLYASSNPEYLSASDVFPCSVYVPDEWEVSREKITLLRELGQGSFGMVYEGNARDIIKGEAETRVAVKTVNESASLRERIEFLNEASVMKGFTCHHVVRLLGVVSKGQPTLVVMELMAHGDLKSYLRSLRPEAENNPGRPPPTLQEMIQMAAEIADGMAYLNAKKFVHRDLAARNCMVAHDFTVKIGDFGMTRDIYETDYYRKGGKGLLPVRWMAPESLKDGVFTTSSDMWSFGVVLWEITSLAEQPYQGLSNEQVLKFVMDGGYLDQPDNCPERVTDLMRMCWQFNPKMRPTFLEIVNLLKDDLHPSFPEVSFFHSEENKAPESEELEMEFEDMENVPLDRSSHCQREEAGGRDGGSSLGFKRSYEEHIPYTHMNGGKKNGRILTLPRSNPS

C=CC(=O)Nc1cc(Nc2nccc(-c3c[nH]c4c(C(N)=O)cccc34)n2)c(OC)cc1N(C)CCN(C)C [Example 16, 3-(2-(5-Acrylamido-4-((2-(dimethylamino)ethyl)(methyl)amino)-2-methoxyphenylamino)pyrimidin-4-yl)-1H-indole-7-carboxamide]
IC50 (INSR): 4.76 nM
IC50 (H1975 cells (DM); Homo sapiens, NCI-H1975, 72 h): 0.72 nM
IC50 (IGF-1R): 3.94 nM
IC50 (PC9 cells (SM); Homo sapiens, PC-9, 72 h): 0.76 nM
IC50 (A431 cells (WT)): 121 nM

C=CC(=O)Nc1cc(Nc2nccc(-n3cc(S(N)(=O)=O)c4ccccc43)n2)c(OC)cc1N(C)CCN(C)C [Example 17, N-(2-((2-(Dimethylamino)ethyl)(methyl)amino)-4-methoxy-5-(4-(3-sulfamoyl-1H-indol-1-yl)pyrimidin-2-ylamino)phenyl) acrylamide]
IC50 (INSR): 67.6 nM
IC50 (H1975 cells (DM); Homo sapiens, NCI-H1975, 72 h): 0.94 nM
IC50 (IGF-1R): 71.2 nM
IC50 (PC9 cells (SM); Homo sapiens, PC-9, 72 h): 0.93 nM
IC50 (A431 cells (WT)): 162 nM

C=CC(=O)Nc1cc(Nc2nccc(-n3nc(C(N)=O)c4ccccc43)n2)c(OC)cc1N(C)CCN(C)C [Example 18, 1-(2-(5-Acrylamido-4-((2-(dimethylamino)ethyl)(methyl)amino)-2-methoxyphenylamino)pyrimidin-4-yl)-1H-indazole-3-carboxamide]
IC50 (INSR): 2.28 nM
IC50 (H1975 cells (DM); Homo sapiens, NCI-H1975, 72 h): 0.41 nM
IC50 (IGF-1R): 2.15 nM
IC50 (PC9 cells (SM); Homo sapiens, PC-9, 72 h): 0.64 nM
IC50 (A431 cells (WT)): 40 nM

C=CC(=O)Nc1cc(Nc2nccc(-n3cc(CN)c4ccccc43)n2)c(OC)cc1N(C)CCN(C)C [Example 19, N-(5-(4-(3-(Aminomethyl)-1H-indol-1-yl)pyrimidin-2-ylamino)-2-((2-(dimethylamino)ethyl)(methyl)amino)-4-methoxyphenyl) acrylamide]
IC50 [1]: 16.7 nM
IC50 [2]: 12.7 nM

C=CC(=O)Nc1cc(Nc2nccc(-n3nc(N)c4ccccc43)n2)c(OC)cc1N(C)CCN(C)C [Example 20]
IC50 (INSR): 19.3 nM
IC50 (H1975 cells (DM); Homo sapiens, NCI-H1975, 72 h): 2.35 nM
IC50 (H1975 cells (DM); 72 h): 2.12 nM
IC50 (IGF-1R): 23.5 nM
IC50 (PC9 cells (SM); Homo sapiens, PC-9, 72 h): 1.92 nM
IC50 (PC9 cells (SM); 72 h): 1.54 nM

C=CC(=O)Nc1cc(Nc2nccc(-n3cc(C(=O)O)c4ccccc43)n2)c(OC)cc1N(C)CCN(C)C [Example 30, 1-(2-((5-Acrylamido-4-((2-(dimethylamino)ethyl)(methyl)amino)-2-methoxyphenyl)amino)pyrimidin-4-yl)-1H-indole-3-carboxylic acid]
IC50 (INSR): 206 nM
IC50 (H1975 cells (DM); Homo sapiens, NCI-H1975, 72 h): 20.4 nM
IC50 (IGF-1R): 210 nM
IC50 (PC9 cells (SM); Homo sapiens, PC-9, 72 h): 19.2 nM
IC50 (A431 cells (WT)): 1680 nM

C=CC(=O)Nc1cc(Nc2nccc(-n3cc(C(=O)NC)c4ccccc43)n2)c(OC)cc1N(C)CCN(C)C [Example 36, N-Methyl 1-(2-((5-acrylamido-4-((2-(dimethylamino)ethyl)(methyl)amino)-2-methoxyphenyl)amino)pyrimidin-4-yl)-1H-indole-3-carboxamide hydrochloride]
IC50 [1]: 57.5 nM
IC50 [2]: 39.5 nM

C=CC(=O)Nc1cc(Nc2nccc(-n3nc(NC4CC4)c4ccccc43)n2)c(OC)cc1N(C)CCN(C)C [Example 69, N-(5-(4-(3-(cyclopropylamino)-1H-indazol-1-yl)pyrimidin-2-ylamino)-2-((2-(dimethylamino)ethyl)(methyl)amino)-4-methoxyphenyl) acrylamide]
IC50 (H1975 cells (DM); Homo sapiens, NCI-H1975, 72 h): 3.55 nM
IC50 (PC9 cells (SM); Homo sapiens, PC-9, 72 h): 1.92 nM
IC50 (A431 cells (WT)): 71.2 nM

C=CC(=O)Nc1cc(Nc2nccc(-n3nc(N(C)C)c4ccccc43)n2)c(OC(C)C)nc1N(C)CCN(C)C [Example 70, N-(5-((4-(3-(dimethylamino)-1H-indazol-1-yl)pyrimidin-2-yl)amino)-2-((2-(dimethylamino)ethyl)(methyl)amino)-6-isopropoxypyridin-3-yl) acrylamide]
IC50 (H1975 cells (DM); Homo sapiens, NCI-H1975, 72 h): 9.11 nM
IC50 (PC9 cells (SM); Homo sapiens, PC-9, 72 h): 2.27 nM
IC50 (A431 cells (WT)): 812 nM

C=CC(=O)Nc1cc(Nc2nccc(-n3nc(N(C)C)c4ccccc43)n2)c(OCC(F)F)nc1N(C)CCN(C)C [Example 71]
IC50 (H1975 cells (DM); Homo sapiens, NCI-H1975, 72 h): 3.29 nM
IC50 (PC9 cells (SM); Homo sapiens, PC-9, 72 h): 2.45 nM
IC50 (A431 cells (WT)): 480 nM

C=CC(=O)Nc1cc(Nc2nccc(-n3nc(N(C)C)c4ccccc43)n2)c(OC)nc1N(C)CCN(C)C [Example 72, N-(5-((4-(3-(Dimethylamino)-1H-indazol-1-yl)pyrimidin-2-yl)amino)-2-((2-(dimethylamino)ethyl)(methyl)amino)-6-methoxypyridin-3-yl) acrylamide]
IC50 (H1975 cells (DM); Homo sapiens, NCI-H1975, 72 h): 8.55 nM
IC50 (PC9 cells (SM); Homo sapiens, PC-9, 72 h): 5.88 nM
IC50 (A431 cells (WT)): 912 nM

C=CC(=O)Nc1cc(Nc2ncc(Cl)c(-n3cc(C(C)=O)c4ccccc43)n2)c(OC)cc1N(C)CCN(C)C [Example 73, N-(5-(4-(3-Acetyl-1H-indol-1-yl)-5-chloropyrimidin-2-ylamino)-2-((2-(dimethylamino)ethyl)(methyl)amino)-4-methoxyphenyl) acrylamide]
IC50 (H1975 cells (DM); Homo sapiens, NCI-H1975, 72 h): 12.6 nM
IC50 (PC9 cells (SM); Homo sapiens, PC-9, 72 h): 3.28 nM
IC50 (A431 cells (WT)): 426 nM

C=CC(=O)Nc1cc(Nc2nccc(-n3cc(-c4ccn[nH]4)c4ccccc43)n2)c(OC)cc1N(C)CCN(C)C [Example 74, N-(5-((4-(3-(1H-Pyrazol-3-yl)-1H-indol-1-yl)pyrimidin-2-yl)amino)-2-((2-(dimethylamino)ethyl)(methyl)amino)-4-methoxyphenyl) acrylamide]
IC50 (H1975 cells (DM); Homo sapiens, NCI-H1975, 72 h): 28 nM
IC50 (PC9 cells (SM); Homo sapiens, PC-9, 72 h): 5.74 nM
IC50 (A431 cells (WT)): 396 nM

C=CC(=O)Nc1cc(Nc2nccc(-n3cc(-c4cn[nH]c4)c4ccccc43)n2)c(OC)cc1N(C)CCN(C)C [Example 75, N-(5-((4-(3-(1H-Pyrazol-4-yl)-1H-indol-1-yl)pyrimidin-2-yl)amino)-2-((2-(dimethylamino)ethyl)(methyl)amino)-4-methoxyphenyl) acrylamide]
IC50 (H1975 cells (DM); Homo sapiens, NCI-H1975, 72 h): 89.5 nM
IC50 (PC9 cells (SM); Homo sapiens, PC-9, 72 h): 27.9 nM
IC50 (A431 cells (WT)): 439 nM

C=CC(=O)Nc1cc(Nc2nccc(-n3cc(-c4ccn[nH]4)c4ncccc43)n2)c(OC)cc1N(C)CCN(C)C [Example 76, N-(5-((4-(3-(1H-Pyrazol-5-yl)-1H-pyrrolo[3,2-b]pyridin-1-yl)pyrimidin-2-yl)amino)-2-((2-(dimethylamino)ethyl)(methyl)amino)-4-methoxyphenyl) acrylamide]
IC50 (H1975 cells (DM); Homo sapiens, NCI-H1975, 72 h): 2.27 nM
IC50 (PC9 cells (SM); Homo sapiens, PC-9, 72 h): 3.33 nM
IC50 (A431 cells (WT)): 152 nM
